The subject of assay [1] is HeLa. The assay is described as follows: Cytotoxicity against human HeLa cells after 24 hrs by MTT assay. The class given is functional, cell-based. A general note: Tetrazolium dyes change colour on reduction, which living cells bring about.
Assay [2] deals with THP-1. The assay is described as follows: Cytotoxicity against human THP1 cells after 24 hrs by MTT assay. The conditions noted are these: THP-1, 24 h. The format is functional, cell-based.
Assay [3] in a line: Cytotoxicity against human primary monocytes after 24 hrs by MTT assay. The format is functional. Conditions: Monocyte.
In assay [4] the test system is Monocyte. The assay is described as follows: Induction of cell death in human primary monocytes at 0.1 to 10 uM after 4 hrs by LDH release assay. The format is functional, cell-based. On the technique in general: Release of lactate dehydrogenase indicates damage to the cell membrane.
Assay [5] relates to K562. The assay is described as follows: Cytotoxicity against human K562 cells after 24 hrs by MTT assay. The format is functional, cell-based. Conditions: K562, 24 h.
Assay [6] deals with MONO-MAC-6. The assay is described as follows: Cytotoxicity against human MONO-MAC-6 cells after 24 hrs by MTT assay. The class given is functional, cell-based. The conditions noted are these: MONO-MAC-6, 24 h.
In assay [7] the test system is Monocyte. The assay is described as follows: Induction of apoptosis in human primary monocytes at 5 uM by PE Annexin V and 7-aminoactinomycin staining based flow cytometry. The format is functional, cell-based. A general note: Flow cytometry measures light scatter and fluorescence of single cells or particles in a stream.
Assay [8] is described as follows: Reduction in metabolic activity in mitochondria isolated from human MONO-MAC-6 cells after 3 hrs up to 10 uM by MTT assay. Details: scale not given: the % may be the effect or the level left. The format is functional.
Assay [9] concerns Monocyte. The assay is described as follows: Induction of morphological changes in human primary monocytes assessed as plasma membrane rupture at 5 uM after 1 hr by light microscopy. The format is functional, cell-based.
The subject of assay [10] is Monocyte. The assay is described as follows: Induction of morphological changes in human primary monocytes assessed as blebs formation at 5 uM after 15 mins by light microscopy. The class given is functional, cell-based.
Assay [11] concerns Monocyte. The assay is described as follows: Induction of necrosis in human primary monocytes at 5 uM by PE Annexin V and 7-aminoactinomycin staining based flow cytometry. The format is functional, cell-based.
In assay [12] the test system is Monocyte. The assay is described as follows: Induction of necrosis in human primary monocytes at 5 uM after 1 to 3 hrs by light microscopy. The format is functional, cell-based.
In assay [13] the test system is HeLa. The assay is described as follows: Cytotoxicity against human HeLa cells assessed as reduction in cell viability at 5 uM after 2 hrs by inverse MTT assay. The format is functional.
Assay [14] deals with Monocyte. The assay is described as follows: Induction of morphological changes in human primary monocytes assessed as blebs formation at 5 uM after 1 hr by light microscopy. The class given is functional, cell-based.
Assay [15] can be described thus: Cytotoxicity against human primary monocytes assessed as reduction in cell viability at 5 uM after 2 hrs by inverse MTT assay. The format is functional, Monocyte.
Assay [16] relates to HeLa. The assay is described as follows: Cytotoxicity against human HeLa cells assessed as reduction in cell viability at 1 uM after 18 hrs by inverse MTT assay. The format is functional, cell-based.
In assay [17] the test system is Monocyte. The assay is described as follows: Cytotoxicity against human primary monocytes assessed as reduction in cell viability at 1 uM after 18 hrs by inverse MTT assay. The class given is functional.
In assay [18] the test system is HeLa. The assay is described as follows: Cytotoxicity against human HeLa cells assessed as reduction in cell viability at 1 uM after 2 to 5 hrs by inverse MTT assay. The class given is functional, cell-based.
The subject of assay [19] is Monocyte. The assay is described as follows: Cytotoxicity against human primary monocytes assessed as reduction in cell viability at 1 uM after 2 to 5 hrs by inverse MTT assay. The class given is functional.
Assay [20] relates to Monocyte. The assay is described as follows: Cytotoxicity against human primary monocytes up to 1 uM after 24 hrs by MTT assay. The class given is functional.
Assay [21] can be described thus: Reduction in metabolic activity in mitochondria isolated from human MONO-MAC-6 cells after 3 hrs at 10 uM by MTT assay. The class given is functional.
Assay [22] has as its system Monocyte. The assay is described as follows: Cytotoxicity against human primary monocytes assessed as reduction in cell viability at 25 uM after 18 hrs by inverse MTT assay. The class given is functional.
Assay [23] relates to Monocyte. The assay is described as follows: Cytotoxicity against human primary monocytes assessed as reduction in cell viability at 25 uM after 2 to 5 hrs by inverse MTT assay. The format is functional.
Assay [24] deals with HeLa. The assay is described as follows: Cytotoxicity against human HeLa cells assessed as reduction in cell viability at 25 uM after 18 hrs by inverse MTT assay. The format is functional, cell-based.
In assay [25] the test system is HeLa. The assay is described as follows: Cytotoxicity against human HeLa cells assessed as reduction in cell viability at 25 uM after 2 to 5 hrs by inverse MTT assay. The format is functional, cell-based.
For assay [26], the system named is Monocyte. The assay is described as follows: Cytotoxicity against human primary monocytes at 0.001 to 1 uM after 24 hrs by MTT assay. The class given is functional.
Assay [27] has as its system Monocyte. The assay is described as follows: Cytotoxicity against human primary monocytes assessed as reduction in cell viability at 3 uM after 2 hrs by inverse MTT assay. The format is functional.
Assay [28] deals with HeLa. The assay is described as follows: Cytotoxicity against human HeLa cells assessed as reduction in cell viability at 3 uM after 18 hrs by inverse MTT assay. The format is functional, cell-based.
Assay [29] has as its system HeLa. The assay is described as follows: Cytotoxicity against human HeLa cells assessed as reduction in cell viability at 3 uM after 2 hrs by inverse MTT assay. The class given is functional, cell-based.
Assay [30] deals with Monocyte. The assay is described as follows: Induction of cell death in human primary monocytes at 3 uM after 4 hrs by LDH release assay. The format is functional, cell-based.
In assay [31] the test system is Monocyte. The assay is described as follows: Induction of necrosis in human primary monocytes at 3 uM by PE Annexin V and 7-aminoactinomycin staining based flow cytometry. The format is functional, cell-based.
The subject of assay [32] is Monocyte. The assay is described as follows: Induction of apoptosis in human primary monocytes assessed as nuclear fragmentation at 3 uM after 3 hrs by light microscopy. The format is functional, cell-based.
Assay [33] has as its system Monocyte. The assay is described as follows: Induction of apoptosis in human primary monocytes at 3 uM by PE Annexin V and 7-aminoactinomycin staining based flow cytometry. The class given is functional, cell-based.
Assay [34] has as its system HeLa. The assay is described as follows: Cytotoxicity against human HeLa cells at 0.001 to 1 uM after 24 hrs by MTT assay. The format is functional, cell-based.
The test system of assay [35] is Monocyte. The assay is described as follows: Cytotoxicity against human primary monocytes assessed as reduction in cell viability at 3 uM after 18 hrs by inverse MTT assay. The class given is functional.
In assay [36] the test system is Monocyte. The assay is described as follows: Induction of apoptosis in human primary monocytes assessed as apoptotic bodies formation at 3 uM after 3 hrs by light microscopy. The class given is functional, cell-based.

Each structure is given as a SMILES string. The source made the active and inactive calls. No cut-off for these calls is given here. Starred links: 1 amine or outer side, 2 acyl side, 3 side chain; linkers in the order of their positions; H or OH if unused. Positions of bridges follow the written chain, without caps; N, C: chain ends. Non-standard residues stand in square brackets, D forms with d. Residues, ends and D or L forms follow the SMILES beside them. Chains are numbered I, II in the order given. Actinocin(9to1) = Cc1c2oc3c(C)ccc(C(=O)[*:1])c3nc-2c(C(=O)[*:2])c(N)c1=O; NMeV = CN[C@H](C(=O)O)C(C)C; Sar = CNCC(=O)O

`COc1cc(O)c(C(=O)O[C@@H]2C[C@]3(C)[C@H]4[C@@H](O)C(C)(C)C[C@@]4(O)C=C(CO)[C@]23O)c(C)c1Cl` [MELLEOLIDE D]: the EC50 (as a rule, the concentration that produces a half-maximal response) in assay [1] is more than 100 µM; in assay [2], more than 100000 nM; in [3] it was 60.7 µM; in [5], more than 100 µM; in assay [6] it was 48.6 µM. Also, the result in assay [4] was inactive.
As for `COc1cc(C)c(C(=O)O[C@@H]2C[C@]3(C)[C@H]4CC(C)(C)C[C@H]4C=C(C=O)[C@]23O)c(O)c1` [ARMILLARIN], the EC50 is 16.7 µM in assay [1]; 4800 nM in assay [2]; 43.2 µM in [3]; 23.7 µM in [5]; 6.6 µM in [6].
For `Cc1cc(O)cc(O)c1C(=O)O[C@@H]1C[C@@]2(C)C1=C(C=O)[C@@H](O)[C@@H]1CC(C)(C)C[C@@H]12` [DEHYDROARMILLYLORSELLINATE], the EC50 in assay [1] was determined as 1.6 µM; in assay [2], 3000 nM; in assay [3], 2.3 µM; in assay [5], 5 µM; in assay [6] it was 4.2 µM. The result in assay [7] was inactive. In addition, the Activity in [8] was 50%; in assay [13], 40%; in assay [15], 40%. For the same compound, the outcome in [9], in [10], in assay [4], in assay [11], in [12] and in assay [14] was Active.
Turning to `Cc1c2oc3c(C)ccc(C(=O)N[C@@H]4C(=O)N[C@H](C(C)C)C(=O)N5CCC[C@H]5C(=O)N(C)CC(=O)N(C)[C@@H](C(C)C)C(=O)O[C@@H]4C)c3nc-2c(C(=O)N[C@@H]2C(=O)N[C@H](C(C)C)C(=O)N3CCC[C@H]3C(=O)N(C)CC(=O)N(C)[C@@H](C(C)C)C(=O)O[C@@H]2C)c(N)c1=O` (I: T[dV]P[Sar][NMeV] / II: T[dV]P[Sar][NMeV]; ester I:1-I:C, II:1-II:C; linker I:N-II:N via Actinocin(9to1)), the outcome in assay [16] and in assay [17] was Active. In addition, the result in assay [18] and in assay [19] was inactive.
For `COc1cc(O)c(C(=O)O[C@@H]2C[C@]3(C)[C@H]4CC(C)(C)C[C@H]4C=C(C=O)[C@]23O)c(C)c1Cl` [ARMILLARIDIN], the EC50 in assay [1] came out at 9.2 µM; in [2], 4500 nM; in assay [3] it was 12.3 µM; in [5], 8.9 µM; in [6], 5.6 µM.
In the case of `CC[C@H](C)[C@H](NC(=O)[C@H]1CCCCN1C)C(=O)N(C)[C@H](CCc1nc(C(=O)N[C@@H](Cc2ccccc2)C[C@H](C)C(=O)O)cs1)C(C)C`, the result in [20] was inactive. This compound also had an EC50 in [6] of 0.03 µM.
Take `COc1cc(O)c(C(=O)O[C@@H]2C[C@@]3(C)C2=C(C=O)[C@@H](O)[C@@H]2CC(C)(C)C[C@@H]23)c(C)c1Cl` [ARNAMIAL]: the EC50 in assay [1] amounted to 4.9 µM; in assay [2], 2900 nM; in assay [3], 3.8 µM; in assay [5] it was 2.3 µM; in assay [6], 3.2 µM.
With `N#CC(C#N)=NNc1cccc(Cl)c1`, in [21], the result was Active.
`C[C@@H]1C[C@@H]([C@H](O)CC2CC(=O)NC(=O)C2)C(=O)[C@@H](C)C1`: the outcome in assay [22] and in [24] was Active. Besides, the result in assay [23] and in assay [25] was inactive.
`COc1cc(C)c(C(=O)O[C@@H]2C[C@@]3(C)C2=C(C=O)[C@@H](O)[C@@H]2CC(C)(C)C[C@@H]23)c(O)c1`: the EC50 in [1] is 12.3 µM; in assay [2], 2400 nM; in assay [3], 3.1 µM; in [5], 4.1 µM; in assay [6], 2.9 µM.
With `CN[C@@H]1C[C@H]2O[C@@](C)([C@@H]1OC)n1c3ccccc3c3c4c(c5c6ccccc6n2c5c31)C(=O)NC4`, the outcome in assay [26], in assay [27], in assay [29] and in assay [31] was inactive. For the same compound, the outcome in assay [28], in [30], in [32], in [33], in assay [34] and in [35] was Active. Moreover, the outcome in assay [36] was Active.

Source of the values: ChEMBL document CHEMBL3351698, “Melleolides induce rapid cell death in human primary monocytes and cancer cells” (Bioorg Med Chem, 2014).
